Data published in article PMC6701825, “Antiproliferative and Antimigratory Effects of a Novel YAP–TEAD Interaction Inhibitor Identified Using in Silico Molecular Docking” (Journal of Medicinal Chemistry, 2019).

Key:
MCF7 cells = experiment: EdU proliferation assay in MCF7 cells; type: cell-based, human; conditions: MCF7, YAP-TEAD-independent growth, 18 hours then 6 hours EdU
Description: Cell proliferation was measured using the Click-iT EdU 488 assay (Sigma-Aldrich). Briefly, the cells were treated with indicated concentrations of compounds for 24 h with the last 4 h being in the presence of 10 μM EdU. The cells were fixed in 4% formaldehyde and stained for EdU incorporation, following the kit’s standard protocol. The cells were counterstained with Hoechst 33342 nucleic acid for 20 min. Fluorescent images of at least three fields of view per well were counted using ImageJ software. Real-time analysis of cell migration was performed using an IncuCyte ZOOM live cell imaging system (Essen BioScience) according to the manufacturer’s instructions. Briefly, the cells were seeded (1.2 × 10^4 cells/well for HeLa cells, 1.5 × 10^4 cells/well for RaVSMCs, and 1 × 10^4 cells/well) into ImageLock 96-well plates. After 36 h, the cells were pretreated overnight with indicated concentrations of compounds. The wells were scratched using a WoundMaker tool, and the media were replaced containing test compounds. Phase contrast images of cell migration into the wounded area were acquired hourly for 24 h. Relative wound confluence was calculated using the Cell Migration Image analysis module of the IncuCyte ZOOM software. […]
MCF7 cells were incubated with the indicated concentrations of CPD3.1 (n=3). […] Edu incorporation in to newly synthesised DNA was detected using the Edu-Click detection kit. […]

TEAD4 = target: T1, TEAD4 (Homo sapiens, UniProt Q15561); experiment: GAL4-TEAD4 fusion / 5xGAL4-secNLUC reporter in HeLa cells; type: cell-based; conditions: 100 μM, 6 h
T1 construct: #18881 (FLAG-YAP); host or cells: HeLa
Text: (§1) TEAD proteins (TEAD1–4) display a high degree of sequence conservation in residues that create the hydrophobic pocket that is essential for YAP binding.[51] YAP proteins also display a high degree of conservation in residues that interact with this pocket.[51] We therefore tested whether CPD3.1 was able to inhibit YAP-induced activity of TEAD1, TEAD2, TEAD3, and TEAD4. To quantify the effect of CPD3.1 on the activity of each individual TEAD paralog, while excluding interference from endogenously expressed TEAD1–4 proteins, we expressed each TEAD paralog (TEAD1–4) fused to the yeast GAL4 DNA-binding domain. Cells were transfected with the GAL4–TEAD expression vector together with a secreted nanoluciferase reporter gene vector under control of a promoter containing five GAL4 DNA-binding elements. This system allows us to study the effect of CPD3.1 on the activity of each individual TEAD protein in isolation, without interference from endogenously expressed transcription factors. In addition, the cells were co-transfected with a YAP expression vector to activate the GAL4–TEAD fusion-dependent transcription (see Supplement Figure 9). Basal activities of TEAD1, TEAD2, TEAD3, and TEAD4 were inhibited by CPD3.1 (Figure 7A–D). […]
(§2) Figure 7 Compound 3.1 inhibits TEAD1, TEAD2, TEAD3, and TEAD4 activities. […] Secreted nano-luciferase activity was quantified in the conditioned media. […]

TEAD2 = target: T2, TEAD2 (Homo sapiens, UniProt Q15562); experiment: GAL4-TEAD2 fusion / 5xGAL4-secNLUC reporter in HeLa cells; type: cell-based; conditions: 100 μM, 6 h
T2 construct: #18881 (FLAG-YAP); host or cells: HeLa
Text: as §1, §2

TEAD3 = target: T3, TEAD3 (Homo sapiens, UniProt Q99594); experiment: GAL4-TEAD3 fusion / 5xGAL4-secNLUC reporter in HeLa cells; type: cell-based; conditions: 100 μM, 6 h
T3 construct: #18881 (FLAG-YAP); host or cells: HeLa
Text: as §1, §2

RaVSMCs = experiment: EdU proliferation assay in RaVSMCs; type: cell-based, rat; conditions: 18 h then 6 h 10 μM EdU
Description: Cell proliferation was measured using the Click-iT EdU 488 assay (Sigma-Aldrich). Briefly, the cells were treated with indicated concentrations of compounds for 24 h with the last 4 h being in the presence of 10 μM EdU. The cells were fixed in 4% formaldehyde and stained for EdU incorporation, following the kit’s standard protocol. The cells were counterstained with Hoechst 33342 nucleic acid for 20 min. Fluorescent images of at least three fields of view per well were counted using ImageJ software. Real-time analysis of cell migration was performed using an IncuCyte ZOOM live cell imaging system (Essen BioScience) according to the manufacturer’s instructions. Briefly, the cells were seeded (1.2 × 10^4 cells/well for HeLa cells, 1.5 × 10^4 cells/well for RaVSMCs, and 1 × 10^4 cells/well) into ImageLock 96-well plates. After 36 h, the cells were pretreated overnight with indicated concentrations of compounds. The wells were scratched using a WoundMaker tool, and the media were replaced containing test compounds. Phase contrast images of cell migration into the wounded area were acquired hourly for 24 h. Relative wound confluence was calculated using the Cell Migration Image analysis module of the IncuCyte ZOOM software.

[1] = tested on: TEAD-independent minimal TNT1 gene promoter; experiment: Minimal TNT1 promoter-luciferase (minP-LUC) reporter in RaVSMCs; type: cell-based, rat; conditions: 6 h
Description: Figure 3 Compound 3 inhibits TEAD target gene expression, cell proliferation, and cell migration. HeLa cells (A) and RaVSMCs (B) were transfected with CCN1-LUC, CTGF-LUC or minimal promoter-LUC (minP-LUC) reporter plasmids and treated with indicated concentrations of compound 3 for 6 h. Cell lysates were assayed for fire-fly luciferase activity (n = 3). HeLa cells (C) and RaVSMCs (D) were treated with indicated concentrations of compound 3 for 18 h, followed by a 6 h labeling with 10 μM EdU (n = 4). HeLa cells (E) and RaVSMCs (F) were treated with the indicated concentrations of compound 3 and migration quantified using a real-time IncuCyte scratch wound assay (n = 4). * = p < 0.05, ** = p < 0.01, *** = p < 0.001.
TNT1-minP reporter containing the Troponin-T minimal promoter was generated by digesting 8xGTIIC-luciferase plasmid (Addgene #34615) with Kpn1 and BglII to remove the TEAD elements, followed by blunt end re-ligation. A 2.177 kb fragment of the human CCN1 promoter containing two proximal TEAD elements (Hg19;chr1:86044316–chr1:86046493) was described previously[39] and cloned into pGL4-luciferase (Promega). The proximal promoter regions of the CTGF (Hg19;chr6:132272455–132272687) promoter, containing a consensus TEAD-binding element, was amplified by PCR from human genomic DNA and cloned into the Kpn1 and Nhe1 sites of pGL4-luciferase. […]

T1 sequence (Q15561 whole entry, the tested form may be a part): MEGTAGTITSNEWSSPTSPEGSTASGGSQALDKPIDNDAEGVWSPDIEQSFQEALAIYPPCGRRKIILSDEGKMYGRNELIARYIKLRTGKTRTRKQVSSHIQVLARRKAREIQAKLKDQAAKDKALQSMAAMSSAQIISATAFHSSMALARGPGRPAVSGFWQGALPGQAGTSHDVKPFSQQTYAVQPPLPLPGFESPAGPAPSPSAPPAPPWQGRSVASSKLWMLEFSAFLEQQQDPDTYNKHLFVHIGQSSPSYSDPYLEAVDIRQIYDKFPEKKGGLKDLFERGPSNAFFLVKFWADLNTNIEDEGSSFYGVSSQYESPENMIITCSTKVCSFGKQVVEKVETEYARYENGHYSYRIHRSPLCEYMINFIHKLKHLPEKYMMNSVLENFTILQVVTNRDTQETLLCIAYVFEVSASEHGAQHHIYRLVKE
T2 sequence (Q15562 whole entry, the tested form may be a part): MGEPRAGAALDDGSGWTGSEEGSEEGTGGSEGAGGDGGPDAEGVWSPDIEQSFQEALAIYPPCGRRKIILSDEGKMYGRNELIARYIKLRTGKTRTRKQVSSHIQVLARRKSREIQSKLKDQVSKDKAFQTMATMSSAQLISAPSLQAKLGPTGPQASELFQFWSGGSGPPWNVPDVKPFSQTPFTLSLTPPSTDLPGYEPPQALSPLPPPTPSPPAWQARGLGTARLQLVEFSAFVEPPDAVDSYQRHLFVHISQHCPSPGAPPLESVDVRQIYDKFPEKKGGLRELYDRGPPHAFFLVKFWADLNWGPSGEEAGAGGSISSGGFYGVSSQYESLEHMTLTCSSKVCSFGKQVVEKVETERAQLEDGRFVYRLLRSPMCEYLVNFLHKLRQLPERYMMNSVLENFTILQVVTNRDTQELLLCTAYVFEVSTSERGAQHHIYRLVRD
T3 sequence (Q99594 whole entry, the tested form may be a part): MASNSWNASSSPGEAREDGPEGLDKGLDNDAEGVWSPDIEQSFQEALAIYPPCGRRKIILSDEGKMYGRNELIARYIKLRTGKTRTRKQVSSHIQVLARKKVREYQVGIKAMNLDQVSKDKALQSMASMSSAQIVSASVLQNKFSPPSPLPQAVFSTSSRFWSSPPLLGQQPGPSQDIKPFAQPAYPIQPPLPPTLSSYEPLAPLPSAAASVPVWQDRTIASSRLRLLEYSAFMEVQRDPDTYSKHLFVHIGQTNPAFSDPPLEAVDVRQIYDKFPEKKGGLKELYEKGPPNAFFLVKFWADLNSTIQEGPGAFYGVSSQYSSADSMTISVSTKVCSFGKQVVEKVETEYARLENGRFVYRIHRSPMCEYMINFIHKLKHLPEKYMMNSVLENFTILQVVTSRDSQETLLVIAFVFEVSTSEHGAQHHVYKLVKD

SMILES: Cc1ccc2c(c1)c1c3n2CCNC3CCC1 (stereo not drawn) [CPD3.1]
- proliferation of MCF7 cells (EdU) (MCF7 cells): did not inhibit the proliferation of MCF7 cells
- basal activity of GAL4-TEAD4 (TEAD4): inhibited
- YAP-stimulated activity of GAL4-TEAD4 (TEAD4; YAP overexpression): significantly inhibited
- basal activity of GAL4-TEAD2 (TEAD2): inhibited
- YAP-stimulated activity of GAL4-TEAD2 (TEAD2; YAP overexpression): significantly inhibited
- basal activity of GAL4-TEAD3 (TEAD3): inhibited
- YAP-stimulated activity of GAL4-TEAD3 (TEAD3; YAP overexpression): significantly inhibited

SMILES: Cc1ccc2c(c1)c1c3n2CCN(CC(O)CN2CCN(C(=O)c4ccco4)CC2)C3CCC1 (stereo not drawn) [CPD3]
- cell proliferation (EdU incorporation) (RaVSMCs): dose-dependently inhibited cell proliferation
- activity of TEAD-independent minimal TNT1 promoter (minP-LUC) [1]: not inhibited by any concentration
